Measurements reported in patent US6355799B1, “Substituted benzene compounds, process for their preparation, and herbicidal and defoliant compositions containing them” (ISK Americas Incorporated, priority 1997, dated 2002).

How the values were obtained:
Format in all cases: in vivo
[1] = tested on: upland rice (Oryza sp., var. Tebonnet, RICE); assay: Post-emerge test, crop safety; settings: post-emerge, 14 days after application, rating scale 0-100
How it was run: (§1)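 Compounds in acetone were track-sprayed at 187 l/ha, 15–1000 g ai/ha, onto sandy loam pots. Pre-emerge seeds were sown one day before spraying, with surface watering afterwards. Post-emerge plants were at the 2–3 leaf stage and sprayed with 0.25% v/v non-ionic surfactant. Injury was rated 0–100 at 14 days.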

[2] = tested on: field corn (Zea mays L., var. Dekalb 535, CORN); assay: Post-emerge test, crop safety; settings: post-emerge, 14 days after application, rating scale 0-100
How it was run: as §1

[3] = tested on: redroot pigweed (Amaranthus retroflexus, AMARE); assay: Pre-emerge test, greenhouse herbicide activity screening; settings: rated 14 days after application, 0 = no damage, 100 = complete death
How it was run: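 Sandy loam pots; pre-emerge: sown 1 d pre-spray, surface-watered after, then bottom-watered. Post-emerge: sown 8–21 d before, 2–3 leaf stage, + 0.25% v/v NIS, bottom-watered. Acetone, 187 l/ha track spray, 15–1000 g ai/ha. 0–100 injury score, day 14.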

[4] = tested on: upland rice (Oryza sp., var. Tebonnet, RICE); assay: Pre-emerge test, crop safety; settings: rated 14 days after application, 0 = no damage, 100 = complete death
How it was run: (§2)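 Plants grown in 10 cm pots of sandy loam mix received acetone-dissolved compounds through a moving flat-fan nozzle. Doses ranged from 15 to 1000 g ai/ha. Pre-emerge pots were seeded one day earlier, post-emerge pots 8–21 days earlier. Fourteen days on, each pot was graded 0–100 for damage.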

[5] = tested on: field corn (Zea mays L., var. Dekalb 535, CORN); assay: Pre-emerge test, crop safety; settings: rated 14 days after application, 0 = no damage, 100 = complete death
How it was run: as §2

[6] = tested on: sicklepod (Cassia obtusifolia, CASOB); assay: Pre-emerge test, greenhouse herbicide activity screening; settings: rated 14 days after application, 0 = no damage, 100 = complete death
How it was run: as §1

[7] = tested on: barnyardgrass (Echinochloa crus-galli, ECHCG); assay: as above; settings: rated 14 days after application, 0 = no damage, 100 = complete death
How it was run: as §1

[8] = tested on: ivyleaf morningglory (Ipomoea hederacea, IPOHE); assay: as above; settings: rated 14 days after application, 0 = no damage, 100 = complete death
How it was run: as §1

[9] = tested on: johnsongrass (Sorghum halepense, SORHA); assay: as above; settings: rated 14 days after application, 0 = no damage, 100 = complete death
How it was run: as §1

[10] = tested on: lambsquarters (Chenopodium album, CHEAL); assay: as above; settings: rated 14 days after application, 0 = no damage, 100 = complete death
How it was run: as §1

[11] = tested on: green foxtail (Setaria viridis, SETVI); assay: as above; settings: rated 14 days after application, 0 = no damage, 100 = complete death
How it was run: as §1

[12] = tested on: velvetleaf (Abutilon theophrasti, ABUTH); assay: as above; settings: rated 14 days after application, 0 = no damage, 100 = complete death
How it was run: as §1

[13] = tested on: large crabgrass (Digitaria sanguinalis, DIGSA); assay: as above; settings: rated 14 days after application, 0 = no damage, 100 = complete death
How it was run: as §1

[14] = tested on: sicklepod (Cassia obtusifolia, CASOB); assay: Post-emerge test, greenhouse herbicide activity screening; settings: post-emerge, 14 days after application, rating scale 0-100
How it was run: (§3)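 Compounds in acetone were track-sprayed at 15–1000 g ai/ha: pre-emergence onto soil sown the previous day, then top-watered to incorporate and later bottom-watered; post-emergence onto 2–3 leaf plants with 0.25% v/v surfactant, bottom-watered only. Ratings on a 0–100 phytotoxicity scale were taken at day 14.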

[15] = tested on: barnyardgrass (Echinochloa crus-galli, ECHCG); assay: as above; settings: post-emerge, 14 days after application, rating scale 0-100
How it was run: as §3

[16] = tested on: ivyleaf morningglory (Ipomoea hederacea, IPOHE); assay: as above; settings: post-emerge, 14 days after application, rating scale 0-100
How it was run: as §3

[17] = tested on: johnsongrass (Sorghum halepense, SORHA); assay: as above; settings: post-emerge, 14 days after application, rating scale 0-100
How it was run: as §3

[18] = tested on: lambsquarters (Chenopodium album, CHEAL); assay: as above; settings: post-emerge, 14 days after application, rating scale 0-100
How it was run: as §3

[19] = tested on: redroot pigweed (Amaranthus retroflexus, AMARE); assay: as above; settings: post-emerge, 14 days after application, rating scale 0-100
How it was run: as §3

[20] = tested on: green foxtail (Setaria viridis, SETVI); assay: as above; settings: post-emerge, 14 days after application, rating scale 0-100
How it was run: as §3

[21] = tested on: velvetleaf (Abutilon theophrasti, ABUTH); assay: as above; settings: post-emerge, 14 days after application, rating scale 0-100
How it was run: as §3

[22] = tested on: large crabgrass (Digitaria sanguinalis, DIGSA); assay: as above; settings: post-emerge, 14 days after application, rating scale 0-100
How it was run: as §3

## Cn1c(C(F)(F)F)cc(=O)n(-c2c(F)cc(Cl)c(OCC#N)c2NC(=O)CCc2ccccc2)c1=O [2-87]
[1]; 63 g ai/ha
  phytotoxicity rating RICE: 40
[1]; 250 g ai/ha
  phytotoxicity rating RICE: 75
[2]; 63 g ai/ha
  phytotoxicity rating CORN: 30
[2]; 250 g ai/ha
  phytotoxicity rating CORN: 80
[3]; 63 g ai/ha
  Pre-emerge Herbicidal Activity, phytotoxicity rating (0-100), AMARE: 100
[3]; 250 g ai/ha
  Pre-emerge Herbicidal Activity, phytotoxicity rating (0-100), AMARE: 100
[4]; 63 g ai/ha
  Pre-emerge phytotoxicity rating (0-100), crop damage, RICE: 40
[4]; 250 g ai/ha
  Pre-emerge phytotoxicity rating (0-100), crop damage, RICE: 90
[5]; 63 g ai/ha
  Pre-emerge phytotoxicity rating (0-100), crop damage, CORN: 5
[5]; 250 g ai/ha
  Pre-emerge phytotoxicity rating (0-100), crop damage, CORN: 75
[6]; 63 g ai/ha
  Pre-emerge Herbicidal Activity, phytotoxicity rating (0-100), CASOB: 100
[6]; 250 g ai/ha
  Pre-emerge Herbicidal Activity, phytotoxicity rating (0-100), CASOB: 100
[7]; 63 g ai/ha
  Pre-emerge Herbicidal Activity, phytotoxicity rating (0-100), ECHCG: 60
[7]; 250 g ai/ha
  Pre-emerge Herbicidal Activity, phytotoxicity rating (0-100), ECHCG: 90
[8]; 63 g ai/ha
  Pre-emerge Herbicidal Activity, phytotoxicity rating (0-100), IPOHE: 90
[8]; 250 g ai/ha
  Pre-emerge Herbicidal Activity, phytotoxicity rating (0-100), IPOHE: 100
[9]; 63 g ai/ha
  Pre-emerge Herbicidal Activity, phytotoxicity rating (0-100), SORHA: 50
[9]; 250 g ai/ha
  Pre-emerge Herbicidal Activity, phytotoxicity rating (0-100), SORHA: 85
[10]; 63 g ai/ha
  Pre-emerge Herbicidal Activity, phytotoxicity rating (0-100), CHEAL: 100
[10]; 250 g ai/ha
  Pre-emerge Herbicidal Activity, phytotoxicity rating (0-100), CHEAL: 100
[11]; 63 g ai/ha
  Pre-emerge Herbicidal Activity, phytotoxicity rating (0-100), SETVI: 90
[11]; 250 g ai/ha
  Pre-emerge Herbicidal Activity, phytotoxicity rating (0-100), SETVI: 100
[12]; 63 g ai/ha
  Pre-emerge Herbicidal Activity, phytotoxicity rating (0-100), ABUTH: 100
[12]; 250 g ai/ha
  Pre-emerge Herbicidal Activity, phytotoxicity rating (0-100), ABUTH: 100
[13]; 63 g ai/ha
  Pre-emerge Herbicidal Activity, phytotoxicity rating (0-100), DIGSA: 80
[13]; 250 g ai/ha
  Pre-emerge Herbicidal Activity, phytotoxicity rating (0-100), DIGSA: 100
[14]; 63 g ai/ha
  phytotoxicity rating CASOB: 40
[14]; 250 g ai/ha
  phytotoxicity rating CASOB: 100
[15]; 63 g ai/ha
  phytotoxicity rating ECHCG: 10
[15]; 250 g ai/ha
  phytotoxicity rating ECHCG: 50
[16]; 63 g ai/ha
  phytotoxicity rating IPOHE: 100
[16]; 250 g ai/ha
  phytotoxicity rating IPOHE: 100
[17]; 63 g ai/ha
  phytotoxicity rating SORHA: 10
[17]; 250 g ai/ha
  phytotoxicity rating SORHA: 50
[18]; 63 g ai/ha
  phytotoxicity rating CHEAL: 80
[18]; 250 g ai/ha
  phytotoxicity rating CHEAL: 90
[19]; 63 g ai/ha
  phytotoxicity rating AMARE: 100
[19]; 250 g ai/ha
  phytotoxicity rating AMARE: 100
[20]; 63 g ai/ha
  phytotoxicity rating SETVI: 30
[20]; 250 g ai/ha
  phytotoxicity rating SETVI: 40
[21]; 63 g ai/ha
  phytotoxicity rating ABUTH: 100
[21]; 250 g ai/ha
  phytotoxicity rating ABUTH: 100
[22]; 63 g ai/ha
  phytotoxicity rating DIGSA: 10
[22]; 250 g ai/ha
  phytotoxicity rating DIGSA: 50
